These results are taken from US8912128B2 (priority 2012, dated 2014).

“And” between values parts separate entries of the source, which are not always exact repeats. Equal entries are not always repeated.

Assay [1] concerns the target cholera toxin secreted from Vibrio cholerae culture (Vibrio cholerae serotype O1, UniProt P01556).
For assay [2], the target named is whole cholera toxin (ctxAB5) (Vibrio cholerae serotype O1, UniProt P01556). It counts as binding.
Chain of whole cholera toxin (ctxAB5) (P01556 whole entry, looked up): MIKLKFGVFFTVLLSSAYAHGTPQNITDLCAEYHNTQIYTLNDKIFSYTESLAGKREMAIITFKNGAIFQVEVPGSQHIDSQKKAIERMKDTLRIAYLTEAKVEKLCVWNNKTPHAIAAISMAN

Chain of cholera toxin secreted from Vibrio cholerae culture (P01556 whole entry, looked up): as above

In the case of GM1 pentasaccharide, the “fluorescence signal with Vibrio cholerae culture” value in assay [1] was “high fluorescence intensity”. For the same substance, in assay [2], the “coefficient of determination of linear relation between fluorescence intensity and whole cholera toxin concentration” value came out at 0.9935; the “limit of detection (LOD) of cholera toxin determined from the dose-response curve” value was 2 ng/mL and 23 pM; the “visual limit of detection (LOD) of cholera toxin” value (from here on “visual limit of detection”) is 5 ng/mL and 57.5 pM; the “whole cholera toxin concentration at which fluorescence intensity was saturated” value was not below 1 µg/mL.

On to GM2 tetrasaccharide, for which the “fluorescence signal with Vibrio cholerae culture” value in assay [1] was “high fluorescence intensity”. Besides, the “visual limit of detection” value in assay [2] is on record as 750 ng/mL.

For asialo GM1 tetrasaccharide, the “visual limit of detection” value in assay [2] came to 1000 ng/mL.
